# Results published in patent US9040715B2 (priority 2008, dated 2015).
# Key:
# [1] = system: Huh7 cells; experiment: Neutral red uptake assay (cytotoxicity); format: cell-based, human
# Excerpt: The neutral red uptake assay is a cytotoxicity test that is based on the ability of viable cells to incorporate and bind the supra-vital dye neutral red in the lysosomes. This weakly cationic dye penetrates cell membranes by non-ionic passive diffusion and concentrates in the lysosomes, where it binds by electrostatic hydrophobic bonds to anionic and phosphate groups of the lysosomal matrix. The dye is then extracted from the viable cells using an acidified ethanol solution, and the absorbance of the solubilized dye is read. When the cell dies or the pH gradient is reduced, the dye is not retained and consequently, the amount of retained dye is proportional to the number of viable cells. Most primary cells and cell lines can be used for this method. The HepG2 and Huh7, two human hepatoma cell lines, were used for this study. The cells were seeded in 96-well tissue culture plates and treated for 48 hours with the compounds. The plates were then incubated for 2 hours with a medium containing neutral red. The cells were subsequently washed, the dye was extracted in each well, and the absorbance was read using a spectrophotometer (FIG. 3 and Table 11).
# [2] = system: C. albicans Mutants; experiment: MIC50 in C. albicans mutant strains; format: cell-based; conditions: Candida albicans
# Description: (§1) The minimum inhibitory concentrations resulting in 50% growth inhibition (MIC50) of […] Candida species (C. albicans, C. tropicalis and C. glabrata, C. lusitaniae, C. parapsilosis, and C. apicola) as well as Aspergillus fumigatus to a set of novel synthetic compounds was determined in accordance with the guidelines in CLSI document M27-A2 (Clinical and Laboratory Standards Institute; Wayne, Pa.). The total volume of cells and drug was 100 μL per microtiter well, and each drug was diluted in RPMI to achieve final concentrations of 0.2-100 μg/ml. Uninoculated cultures were used as a reference standard. Stock inoculum suspensions were prepared from 24 hour cultures on YPD (yeast extract/peptone/dextrose) media at 30° C. For MIC determinations, an inoculum of 1.0×10^3 cells of Candidia and 2.0×10^3 cells of Aspergillus per well were used, and cells in diluted drugs were prepared in RPMI-1640 medium. MICs were determined both visually and spectrophotometrically at 24 hours and 48 h at 550 nm using a micro plate reader. The MIC50 endpoint was measured as the lowest drug concentration resulting in a reduction of growth of 50% or more compared with growth of the control.
# The MIC50 of Compounds I-1, I-2, and I-5 in several mutant strains of Candida albicans, including fluconazole resistant clinical strains, was determined according to the methods described in Example 1 (see Table 9). The activity of Compound I-1 against fluconazole resistant strains was further explored (see Table 10). In Table 10, Strain #1 is a fluconazole sensitive Candida albicans strain; Strain #17 is a fluconazole resistant Candida albicans strain; C. albicans CS#01 is a first clinical strain; C. albicans CS#02 is a second clinical strain.
# [3] = system: Candida albicans (CAF-2); experiment: Anti-fungal/anti-yeast activity: MIC50 (broth microdilution) and MFC; format: cell-based; conditions: for MIC: read-out: MIC-50
# Description: (§2) Fluconazole, an ergosterol inhibitor, and the beta-1,3-glucan inhibitor micafungin served as controls (See Tables 1-8).
# as §1
# (§3) The minimum fungicidal concentrations (MFCs) were determined for each drug-isolate-medium combination as follows. After 48 hours of incubation, 100 μL of each drug-isolate-medium combination (2 plates) was subcultured onto YPD plates (100 μL of solution was spread over the YPD plate). […] The plates were then incubated at 30° C. for 48 hours.
# (§4) The in vitro fungicidal activities (MFCs) were determined for each drug-isolate-medium combination as follows. After 48 hours of incubation, 10 μL each drug-isolate-medium combination was spotted onto YPD plates (10 μL of each well is spotted sequentially with positive and negative control wells). […] The plates were then incubated at 30° C. for 48 hours.
# [4] = system: Candida apicola; experiment: as above; format: cell-based; conditions: for Activity (fungicidal/fungistatic) / MIC-50 / Ratio MFC/MIC: Candida apicola; for MFC: Starmerella apicola
# Description: as §2, §1, §3, §4
# [5] = system: Candida tropicalis; experiment: as above; format: cell-based; conditions: for MIC: read-out: MIC-50
# Description: as §2, §1, §3, §4
# [6] = system: Aspergillus fumigatus; experiment: as above; format: cell-based
# Description: as §2, §1, §3, §4
# [7] = system: Candida lusitaniae; experiment: as above; format: cell-based; conditions: for Activity (fungicidal/fungistatic) / Ratio MFC/MIC: Candida lusitaniae; for MFC / MIC: Clavispora lusitaniae; for MIC: read-out: MIC-50
# Description: as §2, §1, §3, §4
# [8] = system: Candidia parapsilosis; experiment: as above; format: cell-based; conditions: for Activity (fungicidal/fungistatic) / Ratio MFC/MIC: Candidia parapsilosis; for MIC: read-out: MIC-50
# Description: as §2, §1, §3, §4
# [9] = system: Candida glabrata; experiment: as above; format: cell-based; conditions: for Activity (fungicidal/fungistatic) / Ratio MFC/MIC: Candida glabrata; for MFC / MIC: Nakaseomyces glabratus; for MIC: read-out: MIC-50
# Description: as §2, §1, §3, §4
# [10] = system: Saccharomyces cerevisiae (YPH501); experiment: as above; format: cell-based; conditions: for MFC / MIC: Saccharomyces cerevisiae; for Activity (fungicidal/fungistatic) / Ratio MFC/MIC: Saccharomyces cerevisiae (YPH501); for MIC: read-out: MIC-50
# [11] = system: Huh7 or HepG2 cell line; experiment: MTT assay (cytotoxicity); format: cell-based, human; conditions: 24 hours and 48 hours
# Description: The MTT assay is a colorimetric assay that measures the reduction of yellow 3-(4,5-dimethylhiazol-2-yl)-2,5-diphenyl tetrazolium bromide (MTT) by mitochondrial succinate dehydrogenase. The MTT enters the cells and passes into the mitochondria where it is reduced to an insoluble, dark purple, formazan product. The cells are then solubilized with an organic solvent (e.g., isopropanol) and the released, solubilized formazan reagent is measured spectrophotometrically. Since reduction of MTT can only occur in metabolically active cells, the level of activity is a measure of the viability of the cells.
# Cells of the Huh7 or HepG2 cell line were seeded in a 96 well plate. The plate was incubated overnight at 37° C. in a humidified incubator, 5% CO2. The test compounds were added to the plate. Different concentrations of drug were tested in triplicate along with a negative control. The final volume was adjusted to 100 μl per well. The plate was incubated overnight at 37° C. in a humidified incubator, 5% CO2. After 24 hours and 48 hours, MTT reagent (5 mg/ml, 10 μl/100 μl per well of the 96 well plate) was added and incubated at 37° C. for 3 hours. After 3 hours, 100 μl of the DMSO solution was added to each well and the plate was rocked at room temperature for 1 hour. The plate was then read on a plate reader at […].
smiles,measurement,setting,value
O=C(Cn1sc2ccccc2c1=O)Nc1ccccc1Oc1ccccc1 [Compound I-2],Percentage Viability,[1]; 3.3 μg/mL (approx 1X MIC),>100%
same,Percentage Viability,[1]; 10 μg/mL (approx 3X MIC),>100%
same,Percentage Viability,[1]; 33 μg/mL (approx 10X MIC),>100%
same,Percentage Viability,[1]; 100 μg/mL (approx 30X MIC),75%
same,MIC50,[2]; C. albicans strain CAF-2,3 µg/mL
same,MIC50,[2]; C. albicans strain CHK11,12.5 µg/mL
same,MIC50,[2]; C. albicans strain CHK21,> 100 µg/mL
same,MIC50,[2]; C. albicans strain CHK23,25 µg/mL
same,MIC50,[2]; C. albicans strain GOA31,3 µg/mL
same,MIC50,[2]; C. albicans strain GOA32,3 µg/mL
same,Activity (fungicidal/fungistatic),[3],fungicidal (An MFC/MIC ratio of less than four indicates that the compound is fungicidal)
same,MFC,[3],3.2 µg/mL
same,Ratio MFC/MIC,[3],1
same,MIC,[3],3.2 µg/mL
same,Activity (fungicidal/fungistatic),[4],fungicidal (An MFC/MIC ratio of less than four indicates that the compound is fungicidal)
same,MIC-50,[4],6.4 µg/mL
same,Ratio MFC/MIC,[4],1
same,MFC,[4],6.4 µg/mL
same,Activity (fungicidal/fungistatic),[5],fungicidal (An MFC/MIC ratio of less than four indicates that the compound is fungicidal)
same,MFC,[5],3.2 µg/mL
same,Ratio MFC/MIC,[5],1
same,MIC,[5],3.2 µg/mL
same,Activity (fungicidal/fungistatic),[6],fungistatic (an MFC/MIC ratio of greater than four indicates that the compound is fungistatic)
same,MFC,[6],50 µg/mL
same,MIC50,[6],12.5 µg/mL
same,Ratio MFC/MIC,[6],4
same,Activity (fungicidal/fungistatic),[7],fungicidal (An MFC/MIC ratio of less than four indicates that the compound is fungicidal)
same,Ratio MFC/MIC,[7],2
same,MFC,[7],3.2 µg/mL
same,MIC,[7],1.6 µg/mL
same,MFC,[8],3.2 µg/mL
same,Activity (fungicidal/fungistatic),[8],fungicidal (An MFC/MIC ratio of less than four indicates that the compound is fungicidal)
same,Ratio MFC/MIC,[8],2
same,MIC,[8],1.6 µg/mL
same,Activity (fungicidal/fungistatic),[9],fungicidal (An MFC/MIC ratio of less than four indicates that the compound is fungicidal)
same,Ratio MFC/MIC,[9],2
same,MFC,[9],3.2 µg/mL
same,MIC,[9],1.6 µg/mL
same,MFC,[10],3.2 µg/mL
same,Activity (fungicidal/fungistatic),[10],fungicidal (An MFC/MIC ratio of less than four indicates that the compound is fungicidal)
same,Ratio MFC/MIC,[10],2
same,MIC,[10],1.6 µg/mL
same,Toxicity to mammalian cell lines (MTT assay),[11],minimally toxic
O=C(Cn1sc2ccccc2c1=O)NNC(=O)c1cccc(Cl)c1 [Compound I-5],Percentage Viability,[1]; 3.3 μg/mL (approx 1X MIC),>100%
same,Percentage Viability,[1]; 10 μg/mL (approx 3X MIC),>100%
same,Percentage Viability,[1]; 33 μg/mL (approx 10X MIC),>100%
same,Percentage Viability,[1]; 100 μg/mL (approx 30X MIC),92%
same,MIC50,[2]; C. albicans strain CAF-2,6 µg/mL
same,MIC50,[2]; C. albicans strain CHK11,6 µg/mL
same,MIC50,[2]; C. albicans strain CHK21,6 µg/mL
same,MIC50,[2]; C. albicans strain CHK23,6 µg/mL
same,MIC50,[2]; C. albicans strain GOA31,6 µg/mL
same,MIC50,[2]; C. albicans strain GOA32,6 µg/mL
same,Activity (fungicidal/fungistatic),[3],fungicidal (An MFC/MIC ratio of less than four indicates that the compound is fungicidal)
same,MFC,[3],12.5 µg/mL
same,Ratio MFC/MIC,[3],2
same,MIC,[3],6.4 µg/mL
same,Activity (fungicidal/fungistatic),[4],fungicidal (An MFC/MIC ratio of less than four indicates that the compound is fungicidal)
same,MIC-50,[4],6.4 µg/mL
same,Ratio MFC/MIC,[4],2
same,MFC,[4],12.5 µg/mL
same,Activity (fungicidal/fungistatic),[5],fungicidal (An MFC/MIC ratio of less than four indicates that the compound is fungicidal)
same,MFC,[5],12.5 µg/mL
same,Ratio MFC/MIC,[5],2
same,MIC,[5],6.4 µg/mL
same,Activity (fungicidal/fungistatic),[7],fungicidal (An MFC/MIC ratio of less than four indicates that the compound is fungicidal)
same,Ratio MFC/MIC,[7],2
same,MFC,[7],6.4 µg/mL
same,MIC,[7],3.2 µg/mL
same,MFC,[8],12.5 µg/mL
same,Activity (fungicidal/fungistatic),[8],fungicidal (An MFC/MIC ratio of less than four indicates that the compound is fungicidal)
same,Ratio MFC/MIC,[8],2
same,MIC,[8],6.4 µg/mL
same,Activity (fungicidal/fungistatic),[9],fungicidal (An MFC/MIC ratio of less than four indicates that the compound is fungicidal)
same,Ratio MFC/MIC,[9],1
same,MFC,[9],6.4 µg/mL
same,MIC,[9],6.4 µg/mL
same,MFC,[10],3 µg/mL
same,Activity (fungicidal/fungistatic),[10],fungicidal (An MFC/MIC ratio of less than four indicates that the compound is fungicidal)
same,Ratio MFC/MIC,[10],1
same,MIC,[10],3 µg/mL
same,Toxicity to mammalian cell lines (MTT assay),[11],minimally toxic
